From patent publication US20020169101A1, “Treatment of sexual dysfunction” (priority 1999, published 2002)
Entries after “also recorded” stand apart in the source; their conditions may differ.

Tests used:
[1] = tested on: female genital blood flow; experiment: Female genital blood flow in the anaesthetised rabbit model of sexual arousal (pelvic nerve stimulation); assay type: in vivo; settings: 15 mg/kg sc; for basal genital blood flow in the absence of PNS / pelvic-nerve stimulated (PNS) increases in genital (vaginal and clitoral) blood flow: anaesthetised female rabbit (FIGS. 22, 23)
Protocol: Female New Zealand rabbits (˜2.5kg) were pre-medicated with a combination of Medetomidine (Domitor®) 0.5 ml/kg i.m., and Ketamine (Vetalar®) 0.25 ml/kg im. whilst maintaining oxygen intake via a face mask. The rabbits were tracheotomised using a PortexTM uncuffed endotracheal tube 3 ID., connected to ventilator and maintained at a ventilation rate of 30-40 breaths per minute, with an approximate tidal volume of 18-20 ml, and a maximum airway pressure of 10 cm H2O. Anaesthesia was then switched to Isoflurane and ventilation continued with O2 at 21/min. The right marginal ear vein was cannulated using a 23G or 24G catheter, and Lactated Ringer solution perfused at 0.5 ml/min. The rabbit was maintained at 3% Isoflurane during invasive surgery, dropping to 2% for maintenance anaesthesia.
The left groin area of the rabbit was shaved and a vertical incision was made approximately 5 cm in length along the thigh. The femoral vein and artery were exposed, isolated and then cannulated with a PVC catheter (17G) for the infusion of drugs and compounds. Cannulation was repeated for the femoral artery, inserting the catheter to a depth of 10 cm to ensure that the catheter reached the abdominal aorta. This arterial catheter was linked to a Gould system to record blood pressure. Samples for blood gas analysis were also taken via the arterial catheter. Systolic and diastolic pressures were measured, and the mean arterial pressure calculated using the formula (diastolic x2 +systolic)÷3. Heart rate was measured via the pulse oxymeter and Po-ne-mah data acquisition software system (Ponemah Physiology Platform, Gould Instrument Systems Inc). A ventral midline incision was made into the abdominal cavity. The incision was about 5 cm in length just above the pubis. The fat and muscle was bluntly dissected away to reveal the hypogastric nerve which runs down the body cavity. It was essential to keep close to the side curve of the pubis wall in order to avoid damaging the femoral vein and artery which lie above the pubis. The sciatic and pelvic nerves lie deeper and were located after further dissection on the dorsal side of the rabbit. Once the sciatic nerve is identified, the pelvic nerve was easily located. The term pelvic nerve is loosely applied; anatomy books on the subject fail to identify the nerves in sufficient detail. However, stimulation of the nerve causes an increase in vaginal and clitoral blood flow, and innervation of the pelvic region. The pelvic nerve was freed away from surrounding tissue and a Harvard bipolar stimulating electrode was placed around the nerve. The nerve was slightly lifted to give some tension, then the electrode was secured in position. Approximately 1 ml of light paraffin oil was placed around the nerve and electrode. This acts as a protective lubricant to the nerve and prevents blood contamination of the electrode. The electrode was connected to a Grass S88 Stimulator. The pelvic nerve was stimulated using the following parameters:-5V, pulse width 0.5 ms, duration of stimulus 10 seconds and a frequency range of 2 to 16 Hz. Reproducible responses were obtained when the nerve was stimulated every 15-20 minutes. A frequency response curve was determined at the start of each experiment in order to determine the optimum frequency to use as a sub-maximal response, normally 4 Hz. A ventral midline incision was made, at the caudal end of the pubis, to expose the pubic area. Connective tissue was removed to expose the tunica of the clitoris, ensuring that the wall was free from small blood vessels. The external vaginal wall was also exposed by removing any connective tissue. One laser Doppler flow probe was inserted 3 cm into the vagina, so that half the probe shaft was still visible. A second probe was positioned so that it lay just above the external clitoral wall. The position of these probes was then adjusted until a signal was obtained. A second probe was placed just above the surface of a blood vessel on the external vaginal wall. […]

[2] = tested on: penile intracavernosal pressure; experiment: Penile intracavernosal pressure in the conscious male rat (telemetry); assay type: in vivo; settings: Compound 1 10 mg/kg sc, one hour after, Compound 3 15 mg/kg sc, 45 minutes after, conscious male rat (FIGS. 24, 25)
Protocol: In addition to treating women with FSD, bombesin antagonists will be useful in treating male erectile dysfunction (MED. Both the non-selective BB1/2 antagonists (Compound 1; 10 mg/kg sc) and the selective BB1 receptor antagonist (Compound 3; 15 mg/kg sc) is pro-erectile in a conscious rat model of penile erection (FIGS. 24 and 25). Erectile responses were recorded by measuring intracavemosal pressure using surgically implanted telemetric device. The specific details the surgical procedures, data acquisition and analysis can be found in detail in Bernabe 1999.
Compound 1 and compound 3 were dissolved in 50% β-cyclodextrin in saline. They were administered at a dose of […] subcutaneously (sc). […] These increases equate to penile erection. Both Compounds 1 and 3 induced a number of erections in a similar manner to those observed with apomorphine or melanotan-II—both of which are clinically proven agents that are effective in the treatment of MED. Moreover the amplitude of the increases observed were similar to those observed with apomorphine or melanotan-II. The mechanism of action is thought to be similar to the effects on female genital flow ie CNS potentiation of the descending neuronal pathways that control penile erection.

| SMILES | time after sc dosing at which potentiation was significant [1] | time potentiation remained elevated [1] | basal genital blood flow in the absence of PNS [1] | pelvic-nerve stimulated (PNS) increases in genital (vaginal and clitoral) blood flow [1] | penile intracavernosal pressure / erection [2] | penile intracavernosal pressure / erection ([2]; listed as compound 3) |
| --- | --- | --- | --- | --- | --- | --- |
| C[C@@](Cc1c[nH]c2ccccc12)(NC(=O)Nc1ccc([N+](=O)[O-])cc1)C(=O)NCC1(c2ccc(N)cc2)CCCCC1 [Compound 3, (2S)-N-{[1-(4-aminophenyl)cyclohexyl]methyl}-3-(1H-indol-3-yl)-2-methyl-2-{[(4-nitroanilino)-carbonyl]amino}propanamide] | 45 min | circa 1 hr | no effect on basal genital blood flow | potent enhancer of pelvic-nerve stimulated (PNS) increases in vaginal and clitoral blood flow | pro-erectile | significant increases in intracavernosal pressure |
| COc1ccc(C2(CNC(=O)[C@](C)(Cc3c[nH]c4ccccc34)NC(=O)Nc3ccc([N+](=O)[O-])cc3)CCCCC2)nc1 [Compound (1), (S) 3-(1H-Indol-3-yl)-N-[1-(5-methoxy-pyridin-2-yl)-cyclohexyl-methyl]-2-methyl-2-[3-(4-nitro-phenyl)-ureido]-propionamide] |  |  | no effect on basal genital blood flow | potent enhancer of pelvic-nerve stimulated (PNS) increases in genital blood flow | pro-erectile; also recorded: significant increases in intracavernosal pressure |  |
